Values quoted from earlier work as cited in patent US10172940B2 (priority 2009, dated 2019).

System: canine visceral leishmaniasis (CVL)

NC[C@@H]1O[C@H](O[C@H]2[C@@H](O)[C@H](O[C@@H]3[C@@H](O)[C@H](N)C[C@H](N)[C@H]3O[C@H]3O[C@H](CO)[C@@H](O)[C@H](O)[C@H]3N)O[C@@H]2CO)[C@H](N)[C@@H](O)[C@@H]1O [aminosidine]
dogs remaining positive for parasites (culture, PCR of lymph node, parasitological aspect) (dog, in vivo): 4/4
dogs with absence of symptoms and parasites for 4 years (higher doses): 3/12
dogs with relapse (higher doses): 9

Oc1ncnc2[nH]ncc12 [allopurinol]
parasitological cure and PCR result (20 months of treatment): without parasitological cure or negative results for PCR
clinical recovery / clinical improvement (dog, in vivo): 9/10
dogs remaining positive for parasites (culture, PCR of lymph node, parasitological aspect) (dog, in vivo): 8 dogs

Meglumine antimoniate
treated dogs from which parasites were recovered (15 dogs treated): 79%
dogs PCR positive after treatment (dog, in vivo): 5/6

N=C(N)c1ccc(OCCCCCOc2ccc(C(=N)N)cc2)cc1 [pentamidine]
clinical recovery / clinical improvement (dog, in vivo): improve clinically
recurrence of the disease (dog, in vivo): show recurrence of the disease
